# From PubChem BioAssay AID256 (DTP/NCI, 2004)
# “And” between values parts separate entries of the source, which are not always exact repeats. Equal values may be shown once. Inconclusive results and toxic doses are left out.
# Test system: CD2F1 mice, L1210 leukemia ip, survival T/C
# Assay: NCI In Vivo Anticancer Drug Screen. Data for tumor model L1210 Leukemia (intraperitoneal) in CD2F1 (CDF1) mice
# Conditions: endpoint: median survival time, higher = longer survival
# Method in brief: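 Activity against a transplanted murine tumor was judged by comparing the compound group with a vehicle group. The outcome in the treated animals was divided by that in the controls.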
smiles,measurement,setting,value
Nc1ncn(C2OC(CO)C(O)C2O)c(=O)n1 (stereo not drawn),T/C,"dose: 25.0 mg/kg/injection, schedule: Q01DX009 (ip), vehicle: DMSO",260 % of control and 273 % of control
same,T/C,"dose: 25.0 mg/kg/injection, schedule: Q01DX009 (ip), vehicle: other",237 % of control and 265 % of control
same,T/C,"dose: 25.0 mg/kg/injection, schedule: Q01DX009 (oral), vehicle: DMSO",233 % of control
same,T/C,"dose: 28.1 mg/kg/injection, schedule: Q03HX008 (ip), vehicle: DMSO",186 % of control
same,T/C,"dose: 30.0 mg/kg/injection, schedule: Q01DX009 (ip), vehicle: saline",267 % of control and 278 % of control
same,T/C,"dose: 37.5 mg/kg/injection, schedule: Q04DX003 (ip), vehicle: DMSO",163 % of control
same,T/C,"dose: 44.0 mg/kg/injection, schedule: Q01DX009 (ip), vehicle: saline",278 % of control and 284 % of control
same,T/C,"dose: 45.0 mg/kg/injection, schedule: Q01DX005 (ip), vehicle: DMSO",208 % of control
same,T/C,"dose: 45.0 mg/kg/injection, schedule: Q01DX005 (iv), vehicle: DMSO",212 % of control
same,T/C,"dose: 50.0 mg/kg/injection, schedule: Q01DX009 (ip), vehicle: DMSO",289 % of control and 310 % of control
same,T/C,"dose: 50.0 mg/kg/injection, schedule: Q01DX009 (ip), vehicle: other",262 % of control and 289 % of control
same,T/C,"dose: 50.0 mg/kg/injection, schedule: Q01DX009 (oral), vehicle: DMSO",266 % of control
same,T/C,"dose: 56.2 mg/kg/injection, schedule: Q01DX001 (ip), vehicle: DMSO",123 % of control
same,T/C,"dose: 56.2 mg/kg/injection, schedule: Q03HX008 (ip), vehicle: DMSO",191 % of control
same,T/C,"dose: 67.0 mg/kg/injection, schedule: Q01DX009 (ip), vehicle: saline",326 % of control and 328 % of control
same,T/C,"dose: 75.0 mg/kg/injection, schedule: Q04DX003 (ip), vehicle: DMSO",173 % of control
same,T/C,"dose: 90.0 mg/kg/injection, schedule: Q01DX005 (ip), vehicle: DMSO",221 % of control
same,T/C,"dose: 90.0 mg/kg/injection, schedule: Q01DX005 (iv), vehicle: DMSO",242 % of control
same,T/C,"dose: 100.0 mg/kg/injection, schedule: Q01DX009 (ip), vehicle: DMSO",172 % of control
same,T/C,"dose: 100.0 mg/kg/injection, schedule: Q01DX009 (ip), vehicle: other",150 % of control and 277 % of control
same,T/C,"dose: 100.0 mg/kg/injection, schedule: Q01DX009 (oral), vehicle: DMSO",310 % of control
same,T/C,"dose: 112.5 mg/kg/injection, schedule: Q03HX008 (ip), vehicle: DMSO",198 % of control
same,T/C,"dose: 150.0 mg/kg/injection, schedule: Q04DX003 (ip), vehicle: DMSO",198 % of control
same,T/C,"dose: 180.0 mg/kg/injection, schedule: Q01DX005 (ip), vehicle: DMSO",242 % of control
same,T/C,"dose: 180.0 mg/kg/injection, schedule: Q01DX005 (iv), vehicle: DMSO",276 % of control
same,T/C,"dose: 200.0 mg/kg/injection, schedule: Q01DX009 (ip), vehicle: DMSO",123 % of control
same,T/C,"dose: 225.0 mg/kg/injection, schedule: Q01DX001 (iv), vehicle: DMSO",157 % of control
same,T/C,"dose: 225.0 mg/kg/injection, schedule: Q03HX008 (ip), vehicle: DMSO",180 % of control
same,T/C,"dose: 300.0 mg/kg/injection, schedule: Q04DX003 (ip), vehicle: DMSO",243 % of control
same,T/C,"dose: 400.0 mg/kg/injection, schedule: Q01DX009 (ip), vehicle: DMSO",117 % of control
same,T/C,"dose: 400.0 mg/kg/injection, schedule: Q01DX009 (ip), vehicle: saline",113 % of control
same,T/C,"dose: 400.0 mg/kg/injection, schedule: Q01DX009 (oral), vehicle: DMSO",117 % of control
same,T/C,"dose: 600.0 mg/kg/injection, schedule: Q04DX003 (ip), vehicle: DMSO",252 % of control
same,T/C,"dose: 900.0 mg/kg/injection, schedule: Q01DX001 (ip), vehicle: DMSO",162 % of control
same,T/C,"dose: 1200.0 mg/kg/injection, schedule: Q04DX003 (ip), vehicle: DMSO",284 % of control
same,T/C,"dose: 1800.0 mg/kg/injection, schedule: Q01DX001 (ip), vehicle: DMSO",191 % of control
same,T/C,"dose: 2400.0 mg/kg/injection, schedule: Q04DX003 (ip), vehicle: DMSO",290 % of control
same,T/C,"dose: 3600.0 mg/kg/injection, schedule: Q01DX001 (ip), vehicle: DMSO",223 % of control
